Assay results published in US11592453B2, “Personalized metabolomic profiling of specialized pro-resolving mediators” (THE BRIGHAM AND WOMEN'S HOSPITAL, INC., priority 2016, dated 2023).

What was measured:
[1] = system: CREB and S6 in neutrophils and monocytes; assay: Single-cell analysis of intracellular signaling in whole blood leukocytes; assay type: cell-based, human
human macrophages = assay: Real-time analysis of phagocytosis of E. coli by human macrophages; assay type: cell-based; conditions: 1 nM each; for rank of increase in macrophage phagocytosis among individual SPMs: individually
Method: Human peripheral blood mononuclear cells from deidentified healthy human volunteers from the Children's Hospital Boston blood bank were isolated by density-gradient, Ficoll-Histopaque isolation, which was followed by monocyte purification. The monocytes were then cultured for 7 days in RPMI 1640, 10% fetal calf serum (FCS) and were differentiated into macrophages through culturing with granulocyte-macrophage colony-stimulating factor (GM-CSF, 20 ng/ml).
Real-time imaging of human macrophages was performed by plating the cells (50,000 cells/well in PBS++) onto 8-well chamber slides. The chamber slides were kept in a Stage Top Incubation system for microscopes equipped with a built-in digital gas mixer and temperature regulator (TOKAI HIT model INUF-K14). A panel of SPMs (RvE1, RvD1, RvD5, LXB4, and MaR1; 1 nM each or in combination) was added to the macrophages for 15 min, which was followed by the addition of BacLight Green-labeled E. coli (at an E. coli:phagocyte ratio of 50:1). Images were then acquired every 10 min for 3 hours at 37 °C with a Keyence BZ-9000 (BIOREVO) inverted fluorescence phase-contrast microscope (20× objective) equipped with a monochrome-color switching camera using BZ-II Viewer software (Keyence). Mean fluorescence intensity was quantified with a BZ-II Analyzer.

[2] = system: SPM production in human whole blood; assay: SPM and eicosanoid production during coagulation with heparin, eptifibatide, ADA, celecoxib or BAI; assay type: cell-based
Method: FIG. 2 illustrates regulators of SPM formation in human blood. (A to E) Freshly drawn human peripheral blood (4 ml) containing heparin (10 U/ml) was placed in polypropylene tubes (A) whereas human peripheral blood without anticoagulant was placed in silicone-coated tubes (B to E) and incubated at 37° C. for the time course of 0 to 24 hours (see Example 1, Materials and Methods). The samples were then subjected to snap-freezing for extraction and LC-MS/MS analysis. (A) Concentrations of the members of the SPM cluster (identified in FIG. 1) in samples treated without (Coag.) or with heparin (10 U/ml) during the incubation period. Data are means±SEM of three individual donors. (B) Left: Combined concentrations of the total SPM cluster, prostaglandins, and thromboxanes after 24 hours of coagulation in the presence or absence of the αIIbβ3 inhibitor eptifibatide (Eptifib.; 20 μM). Middle: Clot volumes after 24 hours of coagulation of the indicated samples. Right: Representative clot images. Data are means±SEM of three individual donors. (C) Concentrations of total SPMs and of the indicated individual SPMs after 24 hours of coagulation in the presence or absence of 200 mU ADA. Data are means±SEM of three individual donors. *P<0.05, **P<0.01 by ratio t-test. (D) Top: LC-MS/MS measurements of adenosine concentrations in whole blood at the indicated time points during coagulation in the presence or absence of ADA. **P<0.01 when compared to the zero-hour time point. Bottom: Flow cytometric analysis of the percentage of neutrophil-platelet aggregates, which were defined as being double-positive for CD16 and CD42b, in whole blood allowed to coagulate for the indicated times in the absence (Coag.) or presence of ADA. Data are means±SEM of five individual donors. *P<0.05, **P <0.01 by student's t test. For dot plots and gating, see FIG. 7B. (E) MS/MS fragmentation profiles with diagnostic ions for the indicated SPMs identified in (C). (F) Left: PCA score plot. Red denotes +ADA for 1 hour; yellow, coagulation for 1 hour; green, coagulation for 24 hours; blue, +ADA for 24 hours. Right: PCA loading plot showing temporal clustering of the indicated mediators from three individual donors. Red denotes LM at 1 hour; blue denotes 24 hours with ADA).
FIG. 8 illustrates SPM formation in human blood clots being regulated by lipoxygenase activity. (A and B) Freshly drawn human peripheral blood (4 ml) was placed in silicone-coated tubes at 37° C. for 24 hours and coagulation was stopped by snap-freezing before LC-MS/MS analysis was performed. Concentrations of total SPMs, prostaglandins, and thromboxanes after 24 hours of coagulation (Coag.) in the presence or absence of (A) 100 μM indomethacin (Indo.) (n=six individual donors), (B) 500 nM celecoxib (CLX) or 20 μM BAI (n=three individual donors). […]

E. coli = assay: Whole blood bacterial killing during coagulation; assay type: cell-based; conditions: BAI 200 μM, 24 h
Method: FIG. 10 illustrates the inhibitor of SPM formation BAI reduces bacterial killing. Freshly drawn human peripheral blood (4 mL) was placed in silicone-coated tubes at 37° C. for 24 h and was either stopped by snap freezing for LC-MS/MS, or supernatants were placed on LB agar plates and incubated overnight at 37° C. before enumeration of bacterial colonies. (A) Bacterial survival and (B) SPM in human peripheral blood (2.0 mL) incubated with E. coli (7×10^8 CFU) in the presence or absence of a LOX inhibitor (BAI) 200 μM for 24 h; 37° C. (n=4 individual donors). Data are means±SEM; *P<0.05, ****P<0.0001 for +BAI vs. Coag using ratio t-test.
Fresh human blood (2.0 ml) without anticoagulant was incubated with E. coli (˜7×108) in the presence or absence of 200 µM baicalein (a LOX inhibitor; Sigma) and allowed to coagulate at 37° C. for 24 hours. Serum from blood were diluted in PBS on ice and aliquots were placed on LB agar and incubated overnight in a 37° C. incubator. Colonies were enumerated.

[3] = system: prostaglandin, thromboxane and SPM production in human whole blood; assay: LM metabololipidomics of human whole blood during coagulation in the presence of indomethacin; assay type: cell-based; conditions: 100 μM indomethacin
Method: FIG. 8 illustrates SPM formation in human blood clots being regulated by lipoxygenase activity. (A and B) Freshly drawn human peripheral blood (4 ml) was placed in silicone-coated tubes at 37° C. for 24 hours and coagulation was stopped by snap-freezing before LC-MS/MS analysis was performed. Concentrations of total SPMs, prostaglandins, and thromboxanes after 24 hours of coagulation (Coag.) in the presence or absence of (A) 100 μM indomethacin (Indo.) (n=six individual donors), (B) 500 nM celecoxib (CLX) or 20 μM BAI (n=three individual donors). Data are means±SEM; *P<0.05 for +BAI vs. Coag; ****P<0.0001 for +Indo vs. Coag. using ratio t-test.
Human whole blood was transferred in 4-ml aliquots to negatively charged, silicone-coated 10-ml tubes (BD) without anticoagulant. For experiments with heparin, the heparinized blood was placed in 15-ml polypropylene tubes before incubation at 37° C. For LM profiling at designated times, all samples were immediately subjected to a workup procedure by which whole blood was snap-frozen in a dry ice/isopropanol bath and were returned to room temperature (×3 cycles) before undergoing centrifugation at 100,000 g at 4° C. Supernatants (and clots for select experiments; see FIG. 6) were collected and were subjected to LC-MS/MS LM metabololipidomics. […]

Compound | intracellular signaling in neutrophils and monocytes [1] | extent of phagocytosis of E. coli by human macrophages, individual SPMs (human macrophages) | also measured
CC/C=C\C[C@H](O)/C=C/C=C\C/C=C\C=C\[C@@H](O)C/C=C\CCC(=O)O [RvD5, Resolvin D5 (7S, 17S-dihydroxy-docosa-4Z, 8E, 10Z, 13Z, 15E, 19Z-hexaenoic acid)] | activated CREB and S6 | – | –
CCCCC[C@H](O)[C@H](O)/C=C/C=C/C=C\C=C\[C@@H](O)CCCC(=O)O [LXB4, lipoxin B4: (5S, 14R, 15S-trihydroxy-eicosa-6E, 8Z, 10E, 12E-tetraenoic acid)] | activated CREB and S6 | statistically significantly enhanced | rank of increase in macrophage phagocytosis among individual SPMs (human macrophages): greatest increases
O=c1cc(-c2ccccc2)oc2cc(O)c(O)c(O)c12 [baicalein] | – | – | total amounts of SPMs ([2]; 20 μM BAI, 24 hours): reduced the total amounts of SPMs; increase in bacterial counts in the presence of the lipoxygenase inhibitor (E. coli; P<0.0001): > 10 fold; reduction in the abundances of members of the SPM cluster from coagulation (E. coli; with E. coli): > 80%
CC[C@@H](O)/C=C/C=C\C[C@@H](O)/C=C/C=C/C=C\[C@@H](O)CCCC(=O)O [RvE1, Resolvin E1 (5S, 12R, 18R-trihydroxy-eicosa-6Z, 8E, 10E, 14Z, 16E-pentaenoic acid)] | activated CREB and S6 | statistically significantly enhanced | rank of increase in macrophage phagocytosis among individual SPMs (human macrophages): greatest increases
CC/C=C\C/C=C\C[C@H](O)\C=C/C=C/C=C/[C@H](O)C/C=C\CCC(=O)O [Maresin 1, maresin 1 (7R, 14S-dihydroxy-docosa-4Z, 8E, 10E, 12Z, 16Z, 19Z-hexaenoic acid)] | activated CREB and S6 | statistically significantly enhanced | –
CC/C=C\C[C@H](O)/C=C/C=C\C=C\C=C\[C@@H](O)[C@@H](O)C/C=C\CCC(=O)O [RvD1, Resolvin D1 (7S, 8R, 17S-trihydroxy-docosa-4Z, 9E, 11E, 13Z, 15E, 19Z-hexaenoic acid)] | activated CREB and S6 | statistically significantly enhanced | –
COc1ccc2c(c1)c(CC(=O)O)c(C)n2C(=O)c1ccc(Cl)cc1 [indomethacin] | – | – | total SPM amounts compared to absence of inhibitor [3]: did not substantially change; inhibition at 100 µM ([3]; Homo sapiens, 24 hours vs. coagulation alone, read-out: inhibition of total prostaglandin and thromboxane production): > 99%
heparin | – | – | reduction of SPMs in total in blood containing heparin ([2]; heparin 10 U/ml): 98%
